# In patent publication US20060172958A1, “Phospholipid scramblase 3” (priority 2003, published 2006):
# Legend:
# HeLa-control cells = test: TUNEL apoptosis assay with flow cytometry; assay type: cell-based; conditions: 200 nM PMA, 2 hours
# Method: (§1) Apoptotic assays were performed with annexinV-PE (BD-PharMingen) per manufacturer's protocol. The TUNEL assay (terminal deoxynucleotidyltransferase-mediated dUTP-biotin nick end labeling) was performed according to the manufacturer's protocol (Roche, Switzerland).
# (§2) If PLS3 is a direct downstream effector of PKC-δ in the PKC-δ-induced apoptotic pathway, then overexpression of PLS3 might enhance apoptosis induced by PKC-δ activation. HeLa-PLS3 were incubated with phorbol ester PMA, and analyzed for apoptosis with TUNEL assay and flow cytometry.
# HeLa-PLS3 cells = test: TUNEL apoptosis assay with flow cytometry; assay type: cell-based; conditions: 200 nM PMA, 2 hours
# Method: as §1, §2
# HEK293 cells = test: UV-induced cytochrome c release, subcellular fractionation and Western blot; assay type: cell-based
# Method: Subcellular fractionation was performed by differential centrifugation. In brief, […] were incubated in buffer containing 300 mM sucrose, 10 mM Tris (pH 7.5), 5 mM EDTA, 0.1% BSA and 1 mM PMSF protease inhibitor for 5 min on ice. Cells were disrupted by passage through a 25 G needle or dounced for 10 strokes, and then were centrifuged at 1000×g for 5 minutes, 10,000×g for 10 minutes, and 30,000×g for 60 minutes, for collection of intact cells/nuclei, crude mitochondria and microsomes, respectively. The final supernatants were used as cytosols. The mitochondria and the cytosolic fractions were analyzed for cytochrome c release with Western blot.
# The kinase that phosphorylates PLS3 was then sought. Based on the observation that PLS1 is phosphorylated by […], we studied whether PLS3 is the mitochondrial substrate of PKC-δ. It was first reconfirmed that PKC-δ is essential for UV-induced apoptosis by blocking PKC-δ with a PKC-δ inhibitor, rottlerin, in our system. The HEK293 cells were fractionated and the isolated mitochondria and cytosols were analyzed for cytochrome c release by Western blot. This study confirmed that cytochrome c was released to cytosol after UV irradiation, and this release was inhibited by rottlerin (FIG. 20b). […]
# mouse liver mitochondria = test: Cardiolipin transfer assay (NAO fluorescence); assay type: biochemical; conditions: 30 μM NAO, vs buffer or BSA control
# Excerpt: Cardiolipin was then investigated since cardiolipin is a mitochondrion-specific phospholipid and is potentially more critical in the process of apoptosis. Because radioactive cardiolipin is not commercially available, NAO was used to quantify cardiolipin in the recipient mitochondria. NAO binds cardiolipin specifically without interference by other phospholipids with a stoichiometry of 1 to 1 or 2 to 1. To achieve maximal NAO saturation, the recipient mitochondria were permeablized and fixed with formaldehyde. A dose titration of NAO was then performed. The red fluorescence achieved a plateau when the NAO concentrations were above 20 μM as reported (Garcia Fernandez et al. 2000). The concentration of 30 μM was thus chosen to determine the total amount of cardiolipin after in vitro cardiolipin transfer assay. […]
# Phospholipid transfer assay was modified from Koumanov et al. (Koumanov and Infante 1986). […] Mitochondria were then washed five times with mitochondrial preparation buffer to remove free liposomes and counted by scintillation counter for ^14C activity. For cardiolipin transfer assays, total amounts of cardiolipin were quantified by specific fluorescence with NAO dye. NAO (30 μM) was added to recipient mitochondria, and fluorescence intensity was measured at 590±35 nm by fluorescence microplate reader.
# 293-vector cells = test: Mitochondrial potential by Rhodamine 123 flow cytometry; assay type: cell-based; conditions: antimycin A for 6 h
# Method: FIG. 14. Overexpression of mutant PLS3 reduces mitochondrial mass, potential, and cytochrome c and CL content. […] C. […] The blot was re-probed with antibodies to VDAC and tubulin for controls. […] Error bars, SDs from five independent measurements. E. Quantitative PCR analysis of mitochondrial NADH dehydrogenase in 400 ng of whole cell genomic DNA. […] The crossing points (in cycle numbers) of the three cells are indicated.
compound,measurement,setting,value
CCCCCCCCCCCCCC(=O)O[C@@H]1[C@@H](C)[C@@]2(O)[C@@H](C=C(CO)C[C@]3(O)C(=O)C(C)=C[C@@H]23)[C@@H]2C(C)(C)[C@]12OC(C)=O [PMA],apoptosis (TUNEL),HeLa-control cells,did not induce any apoptosis
same,apoptosis (TUNEL),HeLa-PLS3 cells,shifted the curve to right
CC(=O)c1c(O)c(C)c(O)c(Cc2c(O)c3c(c(C(=O)/C=C/c4ccccc4)c2O)OC(C)(C)C=C3)c1O [rottlerin],amount of PKC-δ translocated to mitochondria,"HEK293 cells; UV plus rottlerin, washed mitochondria, 100 nM PMA, cytochrome c release",decreased
same,cytochrome c release to cytosol after UV irradiation,"HEK293 cells; rottlerin 10 μM, harvested 4 hours after UV",inhibited
"PLS3: Recombinant phospholipid scramblase 3 protein; purified PLS3β in transfer assay, His-tagged PLS3 in kinase assay",increase of total amount of cardiolipin in recipient mitochondria,mouse liver mitochondria,35%
antimycin A,mitochondrial potential (Rhodamine 123),293-vector cells,decrease of mitochondrial potential
